In US11000033B2, “Ketone or oxime compound, and herbicide” (NISSAN CHEMICAL CORPORATION, priority 2014, dated 2021):

Key:
Assay type in all cases: in vivo
[1] = system: Echinochloa crus-galli var. crus-galli; test: Test Example 3: herbicidal effect by foliage application, Wagner pot (symbol H); settings: application herbicide amount 320 g/ha
Procedure, shortened: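 Seeds sown in alluvial soil kept under 0.1–0.5 cm water, greenhouse 25–30 °C; 14 d growth. Leaves treated by small sprayer with water-diluted emulsion at a predetermined rate. Effect graded by set scale, 3 weeks.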

Digitaria ciliaris = test: Test Example 4: herbicidal effect by soil treatment (symbol F); settings: for F: Digitaria ciliaris, herbicidal effect grade: 320 g/ha; for F (Digitaria ciliaris) herbicidal effect grade / Herbicidal effect grade, F: Digitaria ciliaris: application herbicide amount 320 g/ha
Procedure, shortened: (§1)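 Seeds were sown in sterilized diluvial soil, covered with about 1.5 cm of soil, and the soil surface was sprayed with a water-diluted emulsion of the compound at a predetermined rate. Plants grew in a greenhouse at 25° C. to 30° C.; effects were scored visually 3 weeks after application.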

Chenopodium album = test: Test Example 4: herbicidal effect by soil treatment (symbol O); settings: for O: Chenopodium album, herbicidal effect grade: 320 g/ha; for O (Chenopodium album) herbicidal effect grade / Herbicidal effect grade, O: Chenopodium album: application herbicide amount 320 g/ha
Procedure, shortened: as §1

Apera spica-venti = test: Test Example 5: herbicidal effect by foliage application, plastic box (symbol L); settings: 320 g/ha, 3 weeks after application
Procedure, shortened: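 Sowing in sterilized diluvial soil, 14 days' greenhouse growth at 25° C. to 30° C., then uniform small-sprayer foliar application of aqueous emulsion dilution; plants scored three weeks afterwards.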

corn = test: Test Example 5: effect on crop by foliage application, plastic box (symbol c); settings: 320 g/ha, 3 weeks after application
Procedure, shortened: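 A greenhouse held between 25° C. and 30° C. was used to grow plants sown spot-wise, beneath ~1.5 cm of soil, in boxes of sterilized diluvial soil.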

Compound | herbicidal effect on H (Echinochloa crus-galli var. crus-galli), grade 0-5 [1] | F: Digitaria ciliaris, herbicidal effect grade (Digitaria ciliaris) | O: Chenopodium album, herbicidal effect grade (Chenopodium album) | L: Apera spica-venti, herbicidal effect (criteria 0-5) (Apera spica-venti) | c: corn, effect on crop (criteria 0-5) (corn) | F (Digitaria ciliaris) herbicidal effect grade (Digitaria ciliaris) | O (Chenopodium album) herbicidal effect grade (Chenopodium album) | L: Apera spica-venti, herbicidal effect grade (Apera spica-venti) | c: corn, effect on crop grade (corn) | Herbicidal effect grade, F: Digitaria ciliaris (Digitaria ciliaris) | Herbicidal effect grade, O: Chenopodium album (Chenopodium album) | L: Apera spica-venti, herbicidal effect (criteria of Test Example 1) (Apera spica-venti) | c: corn, effect on crop (criteria of Test Example 1) (corn) | H (Echinochloa crus-galli var. crus-galli) herbicidal effect grade ([1]; Table 24)
CON=C(C)CC1CC(OC(=O)COCc2ccccc2)=C(c2c(C)cc(C)cc2C)C1=O (centres unmarked) [1-094] | 5 (Herbicidal ratio of 90% or more (almost completely withered)) | 5 (Herbicidal ratio of 90% or more (almost completely withered)) | 0 (Herbicidal ratio of 5% or lower (almost no effect)) | 5 (Herbicidal ratio of 90% or more (almost completely withered)) | 5 (Herbicidal ratio of 90% or more (almost completely withered)) |  |  |  |  |  |  |  |  | 
CON=C(C)CC1CC(OC(=O)C(C)Cl)=C(c2c(C)cc(C)cc2C)C1=O (centres unmarked) [1-042] | 5 (Herbicidal ratio of 90% or more (almost completely withered)) |  |  |  |  | 5 (Herbicidal ratio of 90% or more (almost completely withered)) | 0 (Herbicidal ratio of 5% or lower (almost no effect)) | 5 (Herbicidal ratio of 90% or more (almost completely withered)) | 4 (Herbicidal ratio of 70% or higher and lower than 90%) |  |  |  |  | 
CON=C(C)CC1CC(OC(=O)COc2ccc(C=O)cc2)=C(c2c(C)cc(C)cc2C)C1=O (centres unmarked) [1-079] | 5 (Herbicidal ratio of 90% or more (almost completely withered)) | 5 (Herbicidal ratio of 90% or more (almost completely withered)) | 0 (Herbicidal ratio of 5% or lower (almost no effect)) | 5 (Herbicidal ratio of 90% or more (almost completely withered)) | 5 (Herbicidal ratio of 90% or more (almost completely withered)) |  |  |  |  |  |  |  |  | 
CCCC=CC(=O)OC1=C(c2c(C)cc(C)cc2C)C(=O)C(CC(C)=NOC)C1 (centres unmarked) [1-090] | 5 (Herbicidal ratio of 90% or more (almost completely withered)) | 5 (Herbicidal ratio of 90% or more (almost completely withered)) | 0 (Herbicidal ratio of 5% or lower (almost no effect)) | 5 (Herbicidal ratio of 90% or more (almost completely withered)) | 5 (Herbicidal ratio of 90% or more (almost completely withered)) |  |  |  |  |  |  |  |  | 
CON=C(C)CC1CC(OC(=O)COc2ccc(Br)cc2)=C(c2c(C)cc(C)cc2C)C1=O (centres unmarked) [1-081] | 5 (Herbicidal ratio of 90% or more (almost completely withered)) | 5 (Herbicidal ratio of 90% or more (almost completely withered)) | 0 (Herbicidal ratio of 5% or lower (almost no effect)) | 5 (Herbicidal ratio of 90% or more (almost completely withered)) | 5 (Herbicidal ratio of 90% or more (almost completely withered)) |  |  |  |  |  |  |  |  | 
CON=C(C)CC1CC(OC(=O)COc2ccc(Cl)cc2Cl)=C(c2c(C)cc(C)cc2C)C1=O (centres unmarked) [1-075] | 5 (Herbicidal ratio of 90% or more (almost completely withered)) |  |  | 5 (Herbicidal ratio of 90% or more (almost completely withered)) | 4 (Herbicidal ratio of 70% or higher and lower than 90%) | 5 (Herbicidal ratio of 90% or more (almost completely withered)) | 0 (Herbicidal ratio of 5% or lower (almost no effect)) |  |  |  |  |  |  | 
CON=C(C)CC1CC(OC(=O)C(C)Oc2ccccc2)=C(c2c(C)cc(C)cc2C)C1=O (centres unmarked) [1-060] | 5 (Herbicidal ratio of 90% or more (almost completely withered)) |  |  |  |  | 5 (Herbicidal ratio of 90% or more (almost completely withered)) | 0 (Herbicidal ratio of 5% or lower (almost no effect)) | 5 (Herbicidal ratio of 90% or more (almost completely withered)) | 4 (Herbicidal ratio of 70% or higher and lower than 90%) |  |  |  |  | 
CCCCCCCON=C(C)CC1CC(O)=C(c2c(C)cc(C)cc2C)C1=O (centres unmarked) [1-054] | 5 (Herbicidal ratio of 90% or more (almost completely withered)) |  |  |  |  | 5 (Herbicidal ratio of 90% or more (almost completely withered)) | 0 (Herbicidal ratio of 5% or lower (almost no effect)) | 3 (Herbicidal ratio of 40% or higher and lower than 70%) | 0 (Herbicidal ratio of 5% or lower (almost no effect)) |  |  |  |  | 
CC(=O)CC1CC(O)=C(c2c(C)cc(-c3ccc(OC(F)(F)F)cc3)cc2C)C1=O (centres unmarked) [7-016] | 0 (Herbicidal ratio of 5% or lower (almost no effect)) |  |  |  |  |  |  |  |  | 3 (Herbicidal ratio of 40% or higher and lower than 70%) | 0 (Herbicidal ratio of 5% or lower (almost no effect)) | 0 (Herbicidal ratio of 5% or lower (almost no effect)) | 0 (Herbicidal ratio of 5% or lower (almost no effect)) | 
CC(CC1CC(O)=C(c2c(C)cc(C)cc2C)C1=O)=NOCC[Si](C)(C)C (centres unmarked) [1-055] | 5 (Herbicidal ratio of 90% or more (almost completely withered)) |  |  |  |  | 5 (Herbicidal ratio of 90% or more (almost completely withered)) | 0 (Herbicidal ratio of 5% or lower (almost no effect)) | 5 (Herbicidal ratio of 90% or more (almost completely withered)) | 3 (Herbicidal ratio of 40% or higher and lower than 70%) |  |  |  |  | 
CON=C(CC1CC(O)=C(c2c(C)cc(Br)cc2C)C1=O)C1CC1 (centres unmarked) [9-002] |  |  |  |  |  |  |  | 5 (Herbicidal ratio of 90% or more (almost completely withered)) | 5 (Herbicidal ratio of 90% or more (almost completely withered)) | 5 (Herbicidal ratio of 90% or more (almost completely withered)) | 0 (Herbicidal ratio of 5% or lower (almost no effect)) |  |  | 5 (Herbicidal ratio of 90% or more (almost completely withered))
COCCOC1=C(c2c(C)cc(C)cc2C)C(=O)C(CC(C)=NOC)C1 (centres unmarked) [1-037] | 0 (Herbicidal ratio of 5% or lower (almost no effect)) |  |  |  |  | 0 (Herbicidal ratio of 5% or lower (almost no effect)) | 0 (Herbicidal ratio of 5% or lower (almost no effect)) | 0 (Herbicidal ratio of 5% or lower (almost no effect)) | 0 (Herbicidal ratio of 5% or lower (almost no effect)) |  |  |  |  | 
CON=C(CC1CC(O)=C(c2c(C)cc(C)cc2C)C1=O)C1CCCCC1 (centres unmarked) [1-085] | 5 (Herbicidal ratio of 90% or more (almost completely withered)) | 0 (Herbicidal ratio of 5% or lower (almost no effect)) | 0 (Herbicidal ratio of 5% or lower (almost no effect)) | 3 (Herbicidal ratio of 40% or higher and lower than 70%) | 5 (Herbicidal ratio of 90% or more (almost completely withered)) |  |  |  |  |  |  |  |  | 
